Eight compounds from ChEMBL document CHEMBL1136876, “On the inhibition of HIV-1 protease by hydrazino-ureas displaying the N-->C=O interaction” (Bioorg Med Chem, 2009) can be followed below.

As a reminder, the IC50 is the concentration that inhibits the measured activity by half. Low readings indicate higher potency, high ones lower potency. The Ki is a dissociation constant, usually derived from enzyme kinetics or from competition with a known ligand.

Experiment [1] has as its target T1, Protease (Human immunodeficiency virus 1, UniProt Q9YQ12). The experiment in a line: Inhibition of HIV1 protease by FRET assay.
Experiment [2] concerns the target T1, Protease. Kind of experiment: Inhibition of HIV1 protease by Hanes method.
In experiment [3] the target is T1, Protease. The experiment in a line: Inhibition of HIV1 protease by Dixon method.
In experiment [4] the target is T1, Protease. Kind of experiment: Inhibition of HIV1 protease by Lineweaver-Burke method.

T1 sequence (Q9YQ12 whole entry): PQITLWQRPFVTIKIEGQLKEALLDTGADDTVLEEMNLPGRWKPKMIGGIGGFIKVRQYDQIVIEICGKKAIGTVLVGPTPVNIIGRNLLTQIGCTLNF

`C=CCOC(=O)N[C@]1(Cc2ccccc2)CC[N+]2(CCC[C@H]2C(=O)OC)C1[O-]` (some centres undefined) yielded an IC50 at Protease [1] of more than 1000 µM.
For the compound `CC(C)[C@H](N)C(=O)N[C@]1(Cc2ccccc2)CC[N+]2(CCC[C@H]2C(=O)NC(=O)[C@@H](NC(C)(C)C)C(C)C)C1[O-]` (some centres undefined), the Ki at Protease [2] stood at 96 µM; on Protease [3], 96 µM; on Protease [4] it was 99 µM. The same compound showed a half-maximal inhibitory concentration (IC50) against Protease [1] of 204 µM.
For the compound `O=C1N[C@@H](Cc2ccccc2)C([O-])[N+]2(CCCCC2)N1Cc1ccccc1` (some centres undefined), the Ki on Protease [2] turned out to be 26.2 µM; at Protease [3] it was 34.8 µM; at Protease [4], 26.2 µM. The compound further had an IC50 against Protease [1] of 37.2 µM.
Regarding `O=C1N[C@H](Cc2ccccc2)C([O-])[N+]2(CCCCC2)N1Cc1ccccc1` (some centres undefined), the Ki was determined as 461 µM at Protease [2], 454 µM at Protease [3] and 461 µM on Protease [4]. The half-inhibitory concentration (IC50) on Protease [1] turned out to be 543 µM.
On to `CC(C)(C)NC(=O)[C@@H]1CCC[N+]12C([O-])[C@H](Cc1ccccc1)NC(=O)N2Cc1ccccc1` (some centres undefined), for which the Ki came out at 34.3 µM on Protease [2], 43.9 µM at Protease [3] and 34.3 µM at Protease [4]. This compound also yielded an IC50 on Protease [1] of 44.5 µM.
Take `CC[C@H](C)[C@H](NC(=O)[C@@H](NC(C)(C)C)C(C)C)C(=O)NC(=O)[C@@H]1CCC[N+]12C([O-])[C@H](Cc1ccccc1)NC(=O)N2Cc1ccccc1` (some centres undefined): the figures for the Ki at Protease [2], at Protease [3] and at Protease [4] were 149 µM, 138 µM and 149 µM, respectively. Besides, the IC50 against Protease [1] is 169 µM.
Consider `CC(C)[C@H](N)C(=O)N[C@]1(Cc2ccccc2)CC[N+]2(CCC[C@H]2C(=O)NC(C)(C)C)C1[O-]` (some centres undefined), for which the figures for the Ki on Protease [2], at Protease [3] and at Protease [4] were 618 µM, 577 µM and 574 µM, respectively. The compound further came in with an IC50 against Protease [1] of 545 µM.
For `CC(C)[C@H](NC(C)(C)C)C(=O)NC(=O)[C@@H]1CCC[N+]12C([O-])[C@H](Cc1ccccc1)NC(=O)N2Cc1ccccc1` (some centres undefined) the same measures were 292 µM, 286 µM, 292 µM and 341 µM.
